From patent US5100879A, “Method of topically cleansing the human body” (K.K. Ueno Seiyaku Oyo Kenkyujo, priority 1987, dated 1992)
Read-outs that look alike come from different tables or passages of the source.

Experiments:
mice = conditions: cited from earlier work
[1] = tested on: DNA polymerase of phytohemagglutinin stimulated human lymphocytes; conditions: Cancer Research, 38, 2401 2407; cited from earlier work
HTLV-III [2] = experiment: Anti-AIDS activity, infected cell rate of MT-4 cells infected with HTLV-III at the 6th day (Example 9); type: cell-based; conditions: for Infected cell (%): 6th day, control without test substance 100%
Experimental: (§1) To MT-4 cells (30×10^4 /ml) cultured in RPMI-1640 medium containing 10% bovine serum, was inoculated HTLV-III, and the suspension was incubated at 37° C. for 1 hour to cause the adsorption of the virus. The cell:virus ratio was 500:1. The cells were then washed, and cultured with or without various doses of the test substances (same as those of Example 1) at 37° C. under 5% CO2 for 3 days, after which cell growth, viability, and percentage of infected cells were recorded. The infected cells were distinguished from the uninfected cells by an indirect immuno-fluorescence method. Thus, the cultured cells were fixed with cold methanol on a slide glass, reacted with antibody to the HTLV-III-specific antigens, and further with the secondary antibody (having a fluororescent label). The results are shown in FIGS. 9-29, wherein, .gradient., .increment. and .quadrature. show the controls without virus, and show the infection experiments with HTLV-III. The cell growth is indicated in number of cells, the viability (%) in number of viable cells ×100/number of total cells, and the infected cell rate (%) in number of fluorescent-positive cells x 100/number of total cells.
In order to examine the correlation between the anti-AIDS virus activity and the molecular structure (especially, molecular weight and S-content or number of sulfate group in this case) of various test substances including those used in Examples 1-7, the anti-AIDS activities were evaluated for the various naturally occurring polysaccharides, polysaccharides having a sulfate group, mucopolysaccharides, mucopolysaccharide sulfate, and mucopolysaccharide polysulfate. Further, similar experiments were carried out with various other sulfates which were synthetically obtained. The experimental procedures employed are identical to that in the preceding experiments. The cultured MT-4 cells were infected with HTLV-III and the inhibitory effects of various test substances on the infected cell rate (number of fluorescent cell×100/ total cell, %) were determined at the 6th day.

HTLV-III [3] = experiment: Anti-AIDS virus activity, MT-4 cells infected with HTLV-III, 3 days (Examples 3, 6, 7); type: cell-based; conditions: increasing dose
Experimental: as §1
Test substances were assayed for the anti-AIDS virus activity in the same manner as in Example 3 using cell culture. […]
The anti-AIDS virus activity of heparin was evaluated in the same manner as in Example 3. […]

MT-4 cells = experiment: Cytotoxicity, MT-4 cells cultured without virus (Examples 4 and 8); type: cell-based, human
Source text: The cell:virus ratio was 500:1. […] The infected cells were distinguished from the uninfected cells by an indirect immuno-fluorescence method. Thus, the cultured cells were fixed with cold methanol on a slide glass, reacted with antibody to the HTLV-III-specific antigens, and further with the secondary antibody (having a fluororescent label). […] The cell growth is indicated in number of cells, the viability (%) in number of viable cells ×100/number of total cells, and the infected cell rate (%) in number of fluorescent-positive cells x 100/number of total cells.

[4] = tested on: reverse transciptase of simian sarcoma virus; conditions: Cancer Research, 38, 2401 2407; cited from earlier work
[5] = tested on: disrupted HTLV-III virions as a crude reverse transcriptase; experiment: Inhibition of reverse transcriptase activity (HTLV-III), Example 2; type: biochemical; conditions: FIG. 8
[6] = tested on: Friend leukemia virus (F-MuLV); experiment: Anti-Friend leukemia virus activity, XC-plaque assay, Procedure 2; type: cell-based; conditions: for Number of plaques per dish: control 35
Experimental: (§2) Anti-FMuLV activity of dextran sulfate (molecular weight: 7000-8000, S-content: 17-20%) was determined by a XC-plaque assay method. BALB3T3 cells were cultured in adhesive form in a 35 mm-dish at 5×10^4 cells/dish (2 ml). After removing the culture medium, a fresh medium with or without indicated concentrations of the test substance (1 ml each) and 0.2 ml of the virus preparation were charged, and the cells were cultured overnight. On the following day, the culture media were replaced with those (2 ml) containing or not containing the above substances, the incubation was continued for three additional days to progress the infection and replication of the virus. After the removal of the medium, the further progression of viral replication was stopped by UV irradiation. To this dish, the suspension of XC-cells (2 ml) was added and cultured for three days and the plaque formation produced by the virus particle induced cell-fusion, was observed.
Procedure 1 was repeated except that after adsorption of the virus in the medium without DS, the non-adsorbed viruses were removed and the culture was carried out in the medium (2 ml) containing or not containing DS.

[7] = tested on: Friend leukemia virus (F-MuLV); experiment: Anti-Friend leukemia virus activity, XC-plaque assay, Procedure 1; type: cell-based; conditions: for Number of plaques per dish: control 168
Experimental: as §2

In the case of Heparin, the “acute toxicity (LD50)” value (mice; intravenously) is listed as 1,500-2,000 mg/kg, the “inhibition of DNA polymerase of phytohemagglutinin stimulated human lymphocytes in vitro” value [1] is listed as “inhibit” and the “Infected cell (%)” value (HTLV-III [2]; 10 μg/ml) is listed as 41%. The “Infected cell (%)” value (HTLV-III [2]; 100 μg/ml) was 1%, the “anti-AIDS virus activity, in words” value (HTLV-III [2]; Example 9) was “particularly strong” and the “cell growth (number of cells) and viability of MT-4 cells infected with HTLV-III” value (HTLV-III [3]) was “the number of cells and viability were maintained to that of control”. The “infected cell rate (%) of MT-4 cells infected with HTLV-III, in words” value (HTLV-III [3]) was “less susceptible to the viral infection”, the “cytotoxicity to MT-4 cells, in words” value (MT-4 cells) was “little cytotoxicity” and the “inhibition of reverse transciptase of simian sarcoma virus in vitro” value [4] was “inhibit”.

In the case of “dextran sulfate [Dextran sulfate 7,000-8,000]”, the “acute toxicity (LD50)” value (mice; intravenously) is given as 4,500 mg/kg, the “acute toxicity (LD50)” value (mice; orally) is given as 21,000 mg/kg and the “inhibitory effect against the reverse transcriptase derived from HTLV-III” value [5] is given as “has an inhibitory effect”. The “Infected cell (%)” value (HTLV-III [2]; 10 μg/ml) was 1%, the “Infected cell (%)” value (HTLV-III [2]; 100 μg/ml) was 0% and the “Inhibition (%)” value ([6]; Procedure 2, 0.01 μg/ml) was 6%. The “Number of plaques per dish” value ([6]; Procedure 2, 0.01 μg/ml) was 33 per dish, the “Inhibition (%)” value ([6]; Procedure 2, 0.1 μg/ml) was 45% and the “Number of plaques per dish” value ([6]; Procedure 2, 0.1 μg/ml) was 19 per dish. The “Number of plaques per dish” value ([6]; Procedure 2, 1 μg/ml) was 14 per dish, the “Inhibition (%)” value ([6]; Procedure 2, 10 μg/ml) was 52% and the “Number of plaques per dish” value ([6]; Procedure 2, 10 μg/ml) was 17 per dish. For the same substance, the “Inhibition (%)” value ([6]; Procedure 2, 100 μg/ml) was 54%, the “Number of plaques per dish” value ([6]; Procedure 2, 100 μg/ml) was 16 per dish and the “Number of plaques per dish” value ([6]; Procedure 2, 500 μg/ml) was 0 per dish. The Viability (MT-4 cells; 1 μg/ml, without virus, 0 μg/ml gives 87) was 90%, the “Inhibition (%)” value ([7]; Procedure 1, 1 μg/ml) was 92% and the “Number of plaques per dish” value ([7]; Procedure 1, 1 μg/ml) was 14 per dish. The “Inhibition (%)” value ([7]; Procedure 1, 5 μg/ml) was 93%, the “Number of plaques per dish” value ([7]; Procedure 1, 5 μg/ml) was 12 per dish and the “Inhibition (%)” value ([7]; Procedure 1, 10 μg/ml) was 93%. The “Number of plaques per dish” value ([7]; Procedure 1, 10 μg/ml) was 11 per dish, the “Inhibition (%)” value ([7]; Procedure 1, 50 μg/ml) was 92% and the “Number of plaques per dish” value ([7]; Procedure 1, 50 μg/ml) was 13 per dish. The “Inhibition (%)” value ([7]; Procedure 1, 100 μg/ml) was 96%, the “Number of plaques per dish” value ([7]; Procedure 1, 100 μg/ml) was 6 per dish and the “Inhibition (%)” value ([7]; Procedure 1, 1000 μg/ml) was 100%. The “inhibition of the formation of plaque” value ([7]; Procedure 1, concentrations of 1-100 μg/ml) was no less than 90%.
